Data on 25 molecules can be found in patent publication US12209072B2, “Cyclopentyl acids as LPA antagonists” (BRISTOL-MYERS SQUIBB COMPANY, priority 2018, dated 2025).

Each structure is given as a SMILES string.

T1 sequence (Q92633 whole entry): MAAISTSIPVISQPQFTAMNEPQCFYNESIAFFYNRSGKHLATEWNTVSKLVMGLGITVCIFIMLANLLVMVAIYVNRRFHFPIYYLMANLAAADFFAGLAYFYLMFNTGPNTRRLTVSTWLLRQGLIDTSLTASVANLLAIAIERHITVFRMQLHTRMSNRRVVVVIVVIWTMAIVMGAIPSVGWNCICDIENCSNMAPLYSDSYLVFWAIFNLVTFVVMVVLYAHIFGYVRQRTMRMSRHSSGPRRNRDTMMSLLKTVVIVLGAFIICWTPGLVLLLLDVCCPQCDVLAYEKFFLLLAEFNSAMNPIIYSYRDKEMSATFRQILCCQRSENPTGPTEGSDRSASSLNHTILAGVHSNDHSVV

The experiment has as its target T1, human LPA1 (Homo sapiens, UniProt Q92633).
T1 construct: expressed in transfected cells; host or cells: Chinese hamster ovary (CHO) cells
The experiment in a line: LPA1 functional antagonist assay (LPA-induced calcium flux). Type of experiment: cell-based. As to conditions: CHO cells overexpressing human LPA1; inhibition of calcium flux induced by 10 nM LPA; read-out: hLPA1 IC50. The procedure:
The effectiveness of compounds of the present invention as LPA1 inhibitors can be determined in an LPA1 functional antagonist assay as follows:
Chinese hamster ovary cells overexpressing human LPA1 were plated overnight (15,000 cells/well) in poly-D-lysine coated 384-well microplates (Greiner bio-one, Cat #781946) in DMEM/F12 medium (Gibco, Cat #11039). Following overnight culture, cells were loaded with calcium indicator dye (AAT Bioquest Inc, Cat #34601) for 30 minutes at 37° C. The cells were then equilibrated to room temperature for 30 minutes before the assay. Test compounds solubilized in DMSO were transferred to 384 well non-binding surface plates (Corning, Cat #3575) using the Labcyte Echo acoustic dispense and diluted with assay buffer [1×HBSS with calcium/magnesium (Gibco Cat #14025-092), 20 mM HEPES (Gibco Cat #15630-080) and 0.1% fatty acid free BSA (Sigma Cat #A9205)] to a final concentration of 0.5% DMSO. Diluted compounds were added to the cells by FDSS6000 (Hamamatsu) at final concentrations ranging from 0.08 nM to 5 μM. and were then incubated for 20 min at room temperature at which time LPA (Avanti Polar Lipids Cat #857130C) was added at final concentrations of 10 nM to stimulate the cells. The compound IC50 value was defined as the concentration of test compound which inhibited 50% of the calcium flux induced by LPA alone. IC50 values were determined by fitting data to a 4-parameter logistic equation (GraphPad Prism, San Diego CA).
For orientation: Calcium assays in cells follow changes in intracellular calcium, usually with a dye or a luminescent sensor.
What is called IC50 is the midpoint of a concentration-inhibition curve. On to `Cc1nc(-c2nnn(C)c2COC(=O)N(C)CC2CCCC2)cnc1O[C@@H]1CC[C@@H](C(=O)O)C1` (racemic) [Example 14, (±)-trans-3-((5-(5-((((cyclo-pentylmethyl)(methyl)carbamoyl)oxy)methyl)-1-methyl-1H-1,2,3-triazol-4-yl)-3-methylpyrazin-2-yl)oxy) cyclopentanecarboxylic Acid], for which the IC50 was 184 nM. With `Cc1noc(-c2ccc(OC3CCC(C(=O)O)C3)cn2)c1CNc1nccc(-c2ccccc2)n1` (stereo not shown) [Example 42, 3-((6-(3-methyl-4-(((4-phenylpyrimidin-2-yl)amino)methyl)isoxazol-5-yl)pyridin-3-yl)oxy)cyclopentane-1-carboxylic Acid] the figure was 26 nM.

Regarding `Cc1nc(-c2nnn(C)c2CNc2nccc(-c3ccccn3)n2)ccc1OC[C@@H]1CC[C@H](C(=O)O)C1` (relative stereo) [Example 36, cis-3-(((2-methyl-6-(1-methyl-5-(((4-(pyridin-2-yl)pyrimidin-2-yl)amino)methyl)-1H-1,2,3-triazol-4-yl)pyridin-3-yl)oxy)methyl)cyclopentane-1-carboxylic acid], the IC50 is 119 nM. For the molecule `Cc1nc(-c2cnn(C)c2COC(=O)N(C)CC2CCC2)cnc1O[C@H]1CC[C@H](C(=O)O)C1` (single isomer, unassigned) [Example 17], the IC50 amounted to 416 nM.

Regarding `Cc1nc(-c2onc(C)c2COC(=O)N(C)C2CCCC2)ccc1O[C@H]1CC[C@@H](C(=O)O)C1` (racemic) [Example 76, (±)-cis-3-({6-[4-({[cyclopentyl(methyl)carbamoyl]oxy}methyl)-3-methyl-1,2-oxazol-5-yl]-2-methyl-pyridin-3-yl}oxy)cyclopentane-1-carboxylic acid], the IC50 is 40 nM. `Cc1noc(-c2ccc(OC[C@@H]3CC[C@H](C(=O)O)C3)cc2)c1COC(=O)N(C)C1CCCC1` (relative stereo) [Example 41, Cis-3-((4-(4-(((cyclopentyl(methyl)carbamoyl)oxy)methyl)-3-methylisoxazol-5-yl)phenoxy)methyl)cyclopentane-1-carboxylic acid]: the IC50 was found to be 325 nM.

Turning to `Cc1noc(-c2ccc(O[C@H]3CC[C@@H](C(=O)O)C3)cc2)c1NC(=O)O[C@H](C)c1ccccc1` (single isomer, unassigned) [Example 1], the IC50 came out at 104 nM.

For the molecule `Cc1nc(-c2nnn(C)c2COC(=O)N(C)Cc2ccccc2)ccc1O[C@@H]1CC[C@@H](C(=O)O)C1` (racemic) [Example 22, (±)-trans-3-((6-(5-(((benzyl(methyl)carbamoyl)oxy)methyl)-1-methyl-1H-1,2,3-triazol-4-yl)-2-methylpyridin-3-yl)oxy)cyclopentane carboxylic acid], the IC50 came out at 182 nM. With `Cc1nc(-c2nnn(C)c2COC(=O)N(C)CC2CCC2)ccc1OC[C@@H]1CC[C@H](C(=O)O)C1` (single isomer, unassigned) [Example 31], the IC50 was determined as 10.8 nM.

As to `Cc1noc(-c2ccc(OC3CCC(C(=O)O)C3)cn2)c1CNc1nccc(-c2ccccc2)n1` (single isomer, unassigned) [Example 43], the IC50 stood at 50 nM. For the molecule `Cc1nc(-c2nnn(C)c2COC(=O)N(C)CC2CCC2)ccc1O[C@H]1CC[C@H](C2(C(=O)O)CC2)C1` (racemic) [Example 53, (±)-trans-1-[3-({6-[5-({[(cyclobutyl-methyl)(methyl)carbamoyl]oxy}methyl)-1-methyl-1H-1,2,3-triazol-4-yl]-2-methylpyridin-3-yl}oxy)cyclo-pentyl]cyclopropane-1-carboxylic acid], the IC50 is 14 nM.

For `Cc1nc(-c2nnn(C)c2COC(=O)N(C)CC2CCC2)ccc1O[C@H]1CC[C@H](CC(=O)O)C1` (single isomer, unassigned) [Example 49, (±)-trans-2-[3-({6-[5-({[(cyclobutyl-methyl)(methyl)carbamoyl]oxy}methyl)-1-methyl-1H-1,2,3-triazol-4-yl]-2-methylpyridin-3-yl}oxy)cyclopentyl]acetic acid], the IC50 was 13 nM. With `Cc1nc(-c2nnn(C)c2COC(=O)N(C)CCCF)ccc1O[C@H]1CC[C@H](CC(=O)O)C1` (racemic) [Example 65, (±)-trans-2-[3-({6-[5-({[(3-fluoro-propyl)(methyl)carbamoyl]oxy}methyl)-1-methyl-1H-1,2,3-triazol-4-yl]-2-methylpyridin-3-yl}oxy)cyclo-pentyl]acetic acid] the figure was 944 nM; with `CCCN(C)C(=O)OCc1c(-c2ccc(O[C@H]3CC[C@H](CC(=O)O)C3)c(C)n2)nnn1C` (racemic) [Example 54, (±)-trans-2-[3-({2-methyl-6-[1-methyl-5-({[methyl(propyl)carba-moyl]oxy}methyl)-1H-1,2,3-triazol-4-yl]pyridin-3-yl}oxy)cyclopentyl]acetic acid], 292 nM; with `Cc1noc(-c2ccc(OC[C@@H]3CC[C@H](C(=O)O)C3)cn2)c1CNc1nccc(-c2ccccn2)n1` (relative stereo) [Example 33, cis-3-(((6-(3-methyl-4-(((4-(pyridin-2-yl)pyrimidin-2-yl)amino)methyl)isoxazol-5-yl)pyridin-3-yl)oxy)methyl)cyclopentane-1-carboxylic acid], 40 nM. In the case of `CCCN(C)C(=O)OCc1c(-c2ccc(O[C@@H]3CC[C@@H](C(=O)O)C3)c(C)n2)nnn1C` (racemic) [Example 23, (±)-trans-3-((2-methyl-6-(1-methyl-5-(((methyl(propyl)carbamoyl)oxy)methyl)-1H-1,2,3-triazol-4-yl)pyridin-3-yl)oxy)cyclopentanecarboxylic acid], the IC50 was 2040 nM. With `Cc1nc(-c2nnn(C)c2NC(=O)OCC(C)C)ccc1O[C@H]1CC[C@H](CC(=O)O)C1` (racemic) [Example 81, (±)-Trans-2-(3-((6-(5-((isobutoxycarbonyl)amino)-1-methyl-1H-1,2,3-triazol-4-yl)-2-methylpyridin-3-yl)oxy)cyclopentyl)acetic Acid] the figure was 613 nM; with `Cc1nc(-c2nnn(C)c2COC(=O)N(C)CC(C)C)ccc1O[C@H]1CC[C@H](CC(=O)O)C1` (racemic) [Example 55, (±)-trans-2-[3-({2-methyl-6-[1-methyl-5-({[methyl(2-methylpropyl)carbamoyl]oxy}methyl)-1H-1,2,3-triazol-4-yl]pyridin-3-yl}oxy)cyclo-pentyl]acetic acid], 135 nM; with `Cc1nc(-c2nnn(C)c2COC(=O)N(C)CC2CCC2)cnc1O[C@H]1CC[C@H](CC(=O)O)C1` (racemic) [Example 26, (±)-2-(Trans-3-((5-(5-((((cyclobutylmethyl)(methyl)carbamoyl)oxy)methyl)-1-methyl-1H-1,2,3-triazol-4-yl)-3-methylpyrazin-2-yl)oxy)cyclopentyl)acetic Acid], 371 nM. With `Cc1nc(-c2nnn(C)c2COC(=O)N(C)CC2CCC2)ccc1O[C@H]1CC[C@H](C(=O)O)C1` (single isomer, unassigned) [Example 79, Trans-(1,3)-3-({6-[5-({[(cyclobutyl-methyl) (methyl)carbamoyl]oxy}methyl)-1-methyl-1H-1,2,3-triazol-4-yl]-2-methylpyridin-3-yl}oxy)cyclo-pentane-1-carboxylic acid] the figure was 670 nM; with `Cc1nc(-c2onc(C)c2COC(=O)N(C)C2CCCC2)ccc1O[C@H]1CC[C@H](C(C)(C)C(=O)O)C1` (racemic) [Example 52, (±)-trans-2-[3-({6-[4-({[cyclopentyl(methyl)carbamoyl]oxy}methyl)-3-methyl-1,2-oxazol-5-yl]-2-methyl-pyridin-3-yl}oxy)cyclopentyl]-2-methylpropanoic acid], 8 nM; with `Cc1nc(-c2nnn(C)c2COC(=O)N2CCC3(CCC3)C2)ccc1O[C@H]1CC[C@H](CC(=O)O)C1` (racemic) [Example 61, (±)-trans-2-[3-({6-[5-({6-azaspiro[3.4]octane-6-carbonyloxy}methyl)-1-methyl-1H-1,2,3-triazol-4-yl]-2-methylpyridin-3-yl}oxy)cyclopentyl]acetic acid], 444 nM. For the molecule `Cc1nc(-c2nnn(C)c2COC(=O)N(C)CC2CCC2)ccc1O[C@H]1CC[C@@H](CC(=O)O)C1` (racemic) [Example 48, (±)-cis-2-[3-({6-[5-({[(cyclobutyl-methyl)(methyl)carbamoyl]oxy}methyl)-1-methyl-1H-1,2,3-triazol-4-yl]-2-methylpyridin-3-yl}oxy)cyclopentyl]acetic acid], the IC50 turned out to be 40 nM.

For the molecule `Cc1noc(-c2ccc(O[C@H]3CC[C@H](C(=O)O)C3)cc2)c1COC(=O)N(C)CCC(C)C` (racemic) [Example 72, (±)-trans-3-{4-[3-methyl-4-({[methyl(3-methylbutyl)carbamoyl]oxy}methyl)-1,2-oxazol-5-yl]phenoxy}cyclopentane-1-carboxylic acid], the IC50 was determined as 254 nM. For `Cc1nc(-c2nnn(C)c2CNC(=O)OCC2(C)CC2)ccc1O[C@H]1CC[C@H](CC(=O)O)C1` (racemic) [Example 59, (±)-trans-2-[3-[(2-methyl-6-{1-methyl-5-[({[(1-methylcyclopropyl)methoxy]carbonyl}amino)methyl]-1H-1,2,3-triazol-4-yl}pyridin-3-yl)oxy]cyclo-pentyl]acetic acid] the value was 276 nM.
